Legend:
apotransferrin (apo-Tf) = molecular target: T1, apotransferrin (apo-Tf) (Homo sapiens, UniProt P02787); test: Apo-Tf fluorescence quenching binding study; conditions: for Ka (association binding constant), Apo-Tf / n1 (Number of Binding Sites), Apo-Tf / Kd / fa (fraction of fluorophore accessible to the quencher), Apo-Tf / Kq (bimolecular quenching constant), Apo-Tf / n2 (Hill Coefficient), Apo-Tf: 298 K; for Kd: read-out: Kd (dissociation constant), Apo-Tf; for fa (fraction of fluorophore accessible to the quencher), Apo-Tf / Ksv* (Stern–Volmer quenching constant), Apo-Tf: compound 0–8 µM; for Ksv* (Stern–Volmer quenching constant), Apo-Tf: Tris-HCl pH 7.4, 298 K; for Kq (bimolecular quenching constant), Apo-Tf: from Ksv* with τ0 = 10^−8 s
T1 construct: purchased Sigma-Aldrich Chemical Co. (Schnelldorf, Germany)
T1 sequence (P02787 20-698): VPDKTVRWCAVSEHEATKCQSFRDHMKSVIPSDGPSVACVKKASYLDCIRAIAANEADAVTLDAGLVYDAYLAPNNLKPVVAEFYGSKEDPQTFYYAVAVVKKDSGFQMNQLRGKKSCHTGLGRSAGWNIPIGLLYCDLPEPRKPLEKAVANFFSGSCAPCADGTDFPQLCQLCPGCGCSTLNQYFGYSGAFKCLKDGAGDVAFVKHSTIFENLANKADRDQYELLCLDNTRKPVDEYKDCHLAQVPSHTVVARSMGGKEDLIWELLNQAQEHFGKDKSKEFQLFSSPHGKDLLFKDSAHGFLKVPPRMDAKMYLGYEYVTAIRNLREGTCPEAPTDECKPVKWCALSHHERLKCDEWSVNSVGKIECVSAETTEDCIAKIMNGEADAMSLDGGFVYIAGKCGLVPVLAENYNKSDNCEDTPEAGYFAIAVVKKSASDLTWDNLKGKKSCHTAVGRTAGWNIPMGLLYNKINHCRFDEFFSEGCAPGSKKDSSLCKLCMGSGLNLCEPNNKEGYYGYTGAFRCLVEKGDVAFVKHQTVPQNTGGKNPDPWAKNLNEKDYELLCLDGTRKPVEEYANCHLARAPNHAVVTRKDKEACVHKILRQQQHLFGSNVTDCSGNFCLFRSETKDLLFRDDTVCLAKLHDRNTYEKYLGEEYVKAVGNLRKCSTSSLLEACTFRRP
Description: (§1) Using a Jasco FP 6500 spectrofluorometer (Jasco, Tokyo, Japan) and quartz cells with a 1 cm path length, the fluorescence spectra of HSA and apo-Tf were recorded in the presence and absence of the examined substances. The 2.5 mL samples containing 2.5 µM HSA or 1 µM apo-Tf were titrated by adding 5 µL of the tested substance at a time, a volume that corresponded to a 1 µM increase in concentration. The concentration range used for these experiments varied from 0 to 8 µM. The relevant spectra were collected in the emission domains of 300–500 nm (HSA) and 305–500 nm (apo-Tf) after 3 min of continuous stirring at room temperature, using excitation wavelengths of 280 nm (HSA) and 295 nm (apo-Tf).
(§2) Experiments were conducted in a pH = 7.4 Tris-HCl buffer (5 mM Tris-HCl/50 mM NaCl for HSA and 5 mM Tris-HCl/50 mM NaCl/25 mM NaHCO3 for apo-Tf).
(§3) The following modified Stern–Volmer equation has been used to calculate the Stern–Volmer constant, which will be denoted as KSV* in order to differentiate it from the Stern–Volmer constant calculated for the DNA binding experiments:(5) F0/F0−F=1/faKsv*[Q]+1/fa where F0 and F are the fluorescence intensities in the absence and presence of the tested compounds, fa is the fraction of fluorophore accessible to the quencher (the tested compounds), [Q] is the quencher concentration, and KSV* (M^−1) is the Stern–Volmer constant; the plot of F0/(F0 − F) against 1/[Q] yields KSV as the slope and fa as the y intercept.
(§4) Subsequently, the bimolecular quenching rate constant was obtained by using Equation (6):(6) Ksv^*=Kqτ0
(§5) Kq (M^−1·s^−1) is the bimolecular quenching rate constant and τ0 is the fluorophore’s lifespan in the absence of the investigated chemicals (10^−8 s). The value of Kq can be used to assess whether the quenching phenomena have an underlying static or dynamic mechanism.
(§6) Using the following equation, the affinity constant (Ka) and the number of binding sites (n) have been calculated: (7) lgF0−F/F=lgKa+nlg[Q]
(§7) The binding affinity, Kd, can be calculated using the quadratic function below:(8) F0−F/F0−Fb=[P]t+[Q]+Kd−([P]t+[Q]+Kd)^2−4[P]t[Q]/2[P]t where F and F0 are the fluorescence intensities of the protein in the presence and absence of the quencher, respectively, Fb is the fluorescence of a fully bound protein–quencher, [P]t is the total concentration of the protein, and [Q] is the concentration of the added quencher. Each binding isotherm was plotted against the total quencher concentration in solution as a function of bound to free protein (F/F0).
(§8) The isotherms were then fitted using the nonlinear regression function below:(9) F/F0= F1+(F2−F1)Kdn/Kdn+[Q]^n where n represents the Hill coefficient, F1 and F2 are the horizontal and vertical asymptotes, respectively. The Kd in Equation (9) is derived from the quadratic binding function (Equation (8)).
(§9) Data were collected in triplicate, averaged, and expressed as mean value ± standard deviation (SD). All graph fitting models were defined and built using OriginPro® 2018.

[1] = system: LoVo (human colorectal adenocarcinoma) cell line; test: MTS cytotoxicity assay, LoVo cell line; format: cell-based; conditions: 48 h of incubation
Description: (§10) LoVo, MDA-MB-231 and HUVEC human cell lines were purchased from American Type Culture Collection (ATCC). Cells were routinely maintained in culture either in culture flasks or seeded in plates, using Dulbecco’s modified Eagle medium/nutrient mixture F-12 (DMEM:F12) medium supplemented with […], 10% fetal calf serum (Sigma Aldrich, St. Louis, MO, USA), 100 units/mL penicillin, 100 μg/mL streptomycin and incubated at 37 °C in 5% CO2 humidified atmosphere.
(§11) Cytotoxicity studies were performed in 96-well microtiter plates with flat bottoms (Falcon, Teterboro, NJ, USA) using the CellTiter 96 Aqueous One Solution Cell Proliferation Assay (Promega, Madison, WI, USA), an MTS-based colorimetric assay. Metabolically active cells have the ability to reduce MTS [3-(4,5-dimethylthiazol-2-yl)-5-(3-carboxymethoxyphenyl)-2-(4-sulfophenyl)-2H-tetrazolium, inner salt], a yellow tetrazolium salt, to a colored formazan that is soluble in the culture medium. Briefly, 15 × 10^3 cells per well were cultured in 100 µL culture medium. After 24 h, adherent cells were treated with different concentrations of the studied compounds, as well as adriamycin (Adr) and cisplatin (Cis-Pt), used as positive controls for 24 h and 48 h, respectively. Each well was then filled with 20 µL of reagent containing MTS and PES (phenazine ethosulfate, a cationic dye with excellent chemical stability that binds to MTS and produces a stable solution). The resulting formazan was determined using a Tecan GENios Spectrophotometer (Tecan US, Durham, NC, USA) by measuring the absorbance at λ = 492 nm after incubation for 4 h at 37 °C with moderate agitation every 15 min. The cytotoxicity tests were performed in triplicate, with results reported as mean values with standard deviations (SD). The cytotoxicity of DMSO was also investigated under the same conditions, and no harmful effect was found at doses less than 1%.
(§12) Data were expressed as cell viability by comparing with untreated cells considered 100% viable, using the following formula:(1) Cell viability (%)=absorbance of treated cells−absorbance of culture medium/absorbance of untreated cells−absorbance of culture medium

[2] = system: HUVEC (human umbilical vein endothelial cells); test: MTS cytotoxicity assay, HUVEC normal cell line; format: cell-based; conditions: 24 h of incubation
Description: as §10, §11, §12

EB–DNA system (CT-DNA) = test: Competitive binding assay with ethidium bromide (EB) through fluorescence spectroscopy; design: species or system calf; conditions: EB 2 µM, CT-DNA 10 µM, compound 0–40 µM
Description: The fluorescence spectra were recorded using 1.6 mL samples containing 10 µM CT-DNA, 2 µM EB, and increasing amounts (0–40 µM with an increment of 5 µM) of tested compounds; the samples were prepared by keeping the components in contact for 10 min at room temperature, under continuous stirring and in the dark. The excitation wavelength was 500 nm, and the spectra were recorded between the wavelengths of 520 and 800 nm. A Jasco FP 6500 fluorometer and quartz cells with a 1 cm route length were employed. The classical Stern–Volmer equation (Equation (3)) was used to interpret the obtained data:(3) F0/F=1+KSV·[Q] F0 and F are the fluorescence intensities of the EB–DNA samples in the absence and presence of the tested compounds, respectively; KSV is the Stern–Volmer constant, which was computed as the slope from the plot of F0/F vs. [Q], where [Q] is the chemical concentration.
The binding ratio was plotted against the logarithm of the concentration in comparison with a control sample exposed solely to DMSO. (4) y=A1+(A2−A1)×x^n/K50^n+x^n
For fitting data points, the modified Hill function with offset (Origin®) was used: where y represents the binding ratio (F/F0), x represents the concentration, A1 represents the minimum of y values, A2 represents the maximum of y values, K50 represents the concentration corresponding to 50% binding or the half maximum binding constant, and n represents the Hill coefficient.

[3] = molecular target: T2, human serum albumin (HSA) (Homo sapiens, UniProt P02768); test: HSA fluorescence quenching binding study; conditions: for Ka (association binding constant), HSA / n1 (Number of Binding Sites), HSA / n2 (Hill Coefficient), HSA / Kd / fa (fraction of fluorophore accessible to the quencher), HSA / Ksv* (Stern–Volmer quenching constant), HSA: HSA 2.5 µM; for Ka (association binding constant), HSA / n1 (Number of Binding Sites), HSA / n2 (Hill Coefficient), HSA / Kd / fa (fraction of fluorophore accessible to the quencher), HSA / Kq (bimolecular quenching constant), HSA: 298 K; for Kd: read-out: Kd (dissociation constant), HSA; for fa (fraction of fluorophore accessible to the quencher), HSA / Ksv* (Stern–Volmer quenching constant), HSA: compound 0–8 µM; for Kq (bimolecular quenching constant), HSA: from Ksv* with τ0 = 10^−8 s; for Ksv* (Stern–Volmer quenching constant), HSA: Tris-HCl pH 7.4, 298 K
T2 construct: purchased Sigma-Aldrich Chemical Co. (Schnelldorf, Germany)
T2 sequence (P02768 25-609): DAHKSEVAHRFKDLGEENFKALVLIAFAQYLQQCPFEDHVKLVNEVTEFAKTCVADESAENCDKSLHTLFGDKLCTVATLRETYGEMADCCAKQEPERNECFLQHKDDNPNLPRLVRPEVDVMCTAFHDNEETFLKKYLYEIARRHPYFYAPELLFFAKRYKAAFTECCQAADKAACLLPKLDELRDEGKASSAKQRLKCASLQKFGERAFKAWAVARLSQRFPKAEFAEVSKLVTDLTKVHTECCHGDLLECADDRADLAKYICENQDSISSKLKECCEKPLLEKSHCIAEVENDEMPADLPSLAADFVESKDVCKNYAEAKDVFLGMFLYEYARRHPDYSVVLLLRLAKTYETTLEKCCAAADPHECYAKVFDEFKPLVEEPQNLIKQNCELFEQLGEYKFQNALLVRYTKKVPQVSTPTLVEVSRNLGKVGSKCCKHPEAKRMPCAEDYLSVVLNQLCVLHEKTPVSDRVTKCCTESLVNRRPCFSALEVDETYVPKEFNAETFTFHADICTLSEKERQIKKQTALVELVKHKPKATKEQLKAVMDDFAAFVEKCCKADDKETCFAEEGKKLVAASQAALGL
Description: as §1, §2, §3, §4, §5, §6, §7, §8, §9

Molecule	Ka (association binding constant), Apo-Tf (apotransferrin (apo-Tf); apo-Tf 1 µM)	n1 (Number of Binding Sites), Apo-Tf (apotransferrin (apo-Tf); apo-Tf 1 µM)	Kd (apotransferrin (apo-Tf); apo-Tf 1 µM) [µM]	fa (fraction of fluorophore accessible to the quencher), Apo-Tf (apotransferrin (apo-Tf); apo-Tf 1 µM)	Ksv* (Stern–Volmer quenching constant), Apo-Tf (apotransferrin (apo-Tf); apo-Tf 1 µM)	Kq (bimolecular quenching constant), Apo-Tf (apotransferrin (apo-Tf)) [M⁻¹ s⁻¹]	IC50 [1] [µM]	IC50 [2] [µM]	EB Displacement Assay K50 (half maximum binding constant) (EB–DNA system (CT-DNA)) [µM]	KSV, Stern–Volmer quenching constant (EB–DNA) (EB–DNA system (CT-DNA))	Ka (association binding constant), HSA [3]	n1 (Number of Binding Sites), HSA [3]	n2 (Hill Coefficient), HSA [3]	Kd [3] [µM]	fa (fraction of fluorophore accessible to the quencher), HSA [3]	Kq (bimolecular quenching constant), HSA [3] [M⁻¹ s⁻¹]	n2 (Hill Coefficient), Apo-Tf (apotransferrin (apo-Tf); apo-Tf 1 µM)	quenching effect on apo-Tf fluorescence peak (apotransferrin (apo-Tf); apo-Tf 1 µM, compound up to 8 µM) [%]	Ksv* (Stern–Volmer quenching constant), HSA [3]	IC50 (μM) LoVo [1]
Tb(C12H11N2O3)3(H2O)2·1.5H2O [Tb(nal)3]	(1.63 ± 0.42) × 10^4 M^−1	0.83 ± 0.02	5.76 ± 2.6	0.68 ± 0.01	(2.70 ± 0.11) × 10^5 M^−1	2.7e+13	25.6 ± 6.97	96.2 ± 48.8	31.96 ± 10.16	8.35 ± 0.11 M^−1 (×10^3)	(31.26 ± 9.66) × 10^5 M^−1	1.18 ± 0.02	0.89 ± 0.35	4.61 ± 1.67	1.13 ± 0.02	2.39e+13	–	–	–	–
Eu(C12H11N2O3)3(H2O)2·2.5H2O [Eu(nal)3]	(2.25 ± 1.01) × 10^4 M^−1	0.84 ± 0.03	3.85 ± 0.29	0.80 ± 0.02	(2.21 ± 0.13) × 10^5 M^−1	2.21e+13	26.9 ± 5.72	> 200	30.96 ± 10.85	9.62 ± 0.10 M^−1 (×10^3)	(21.59 ± 2.04) × 10^5 M^−1	1.13 ± 0.00	1.17 ± 0.27	2.67 ± 0.21	1.13 ± 0.01	2.89e+13	1.58 ± 0.23	48	(2.89 ± 0.11) × 10^5 M^−1	–
CCn1cc(C(=O)[O-])c(=O)c2ccc(C)nc21.CCn1cc(C(=O)[O-])c(=O)c2ccc(C)nc21.O.O.O.O.[Gd+3].[OH-] [Gd(nal)2, Gd(C12H11N2O3)2(OH)(H2O)·3H2O]	(3.46 ± 1.34) × 10^4 M^−1	0.94 ± 0.03	8.87 ± 6.2	0.92 ± 0.07	(0.78 ± 0.09) × 10^5 M^−1	7.8e+12	> 200	> 200	34.11 ± 8.90	10.47 ± 0.13 M^−1 (×10^3)	(15.52 ± 2.93) × 10^5 M^−1	1.15 ± 0.01	1.20 ± 0.23	4.79 ± 0.84	1.25 ± 0.03	1.51e+13	1.20 ± 0.40	–	(1.51 ± 0.07) × 10^5 M^−1	not toxic
CCn1cc(C(=O)[O-])c(=O)c2ccc(C)nc21.CCn1cc(C(=O)[O-])c(=O)c2ccc(C)nc21.O.O.O.[La+3].[OH-] [La(nal)2, La(C12H11N2O3)2(OH)(H2O)·2H2O]	(6.94 ± 2.32) × 10^4 M^−1	1.00 ± 0.03	5.43 ± 1.46	1.20 ± 0.49	(0.44 ± 0.23) × 10^5 M^−1	4.4e+12	25.1 ± 9.11	114 ± 46.8	31.39 ± 13.66	8.90 ± 0.17 M^−1 (×10^3)	(9.03 ± 1.04) × 10^5 M^−1	1.09 ± 0.01	1.32 ± 0.11	3.35 ± 0.11	1.09 ± 0.02	1.09e+13	1.82 ± 0.55	–	(1.09 ± 0.02) × 10^5 M^−1	–
N.N.[Cl][Pt][Cl] [Cis-Pt, cisplatin, reference compound]	–	–	–	–	–	–	38.6 ± 4.63	78.5 ± 16	–	–	–	–	–	–	–	–	–	–	–	–
